Publication PMC5685716, “Oral 4-(N)-stearoyl gemcitabine nanoparticles inhibit tumor growth in mouse models” (Oncotarget, 2017)
≈ marks a conversion by molar mass, not a printed value. Where “and” joins values, the source holds several entries; their conditions need not be identical. Identical values can stand only once. Counter-ions that a name gives are not always drawn. Like-named read-outs stand apart in the source and are kept apart here.

Columns and labels:
[1] = system: TC-1 tumors; experiment: Antitumor activity in mice with pre-established TC-1 tumors; assay type: in vivo, C57BL/6 mice; conditions: p.o. once daily, GemC18 150 μg/mouse, gemcitabine HCl 85 μg/mouse (molar equivalent)
Description: When TC-1 tumor cells were used, female C57BL/6 mice (18-20 g, 6-8 weeks, n = 5) were subcutaneously (s.c) injected with TC-1 cells (5 × 10^5 cells/mouse) in the right flank on day 0. Mouse hair was carefully trimmed at the injection site one day prior to the injection. Treatment with GemC18-SLNs, GemC18-in-vegetable oil (GemC18-in-oil), GemC18-free SLNs, all in a mannitol solution (5%, w/v), was started on day 11, and mice were orally gavaged daily until the endpoint (i.e. death, tumor size reaching 15 mm, tumor ulceration, body weight loss of more than 20%, or other signs of severe distress and discomfort). As controls, mice were orally gavaged with a mannitol solution (5%) or i.v. injected with the GemC18-SLNs, twice a week until the endpoint. The dose of GemC18 was 250 μg per mouse per dose for the oral route, 500 μg per mouse per dose for i.v. route. Tumor size was measured 2-3 times a week, and tumor volume was calculated as: volume (mm^3) = (length x width^2)/2. Mouse survival time was also recorded. In another study, TC-1 tumor-bearing female C57BL/6 mice were orally gavaged with GemC18-SLNs, GemC18-in-oil, vegetable oil alone (oil), or gemcitabine HCl (GemHCl, as a control), once daily. The dose of GemC18 was 150 μg per mouse per dose, and dose of GemHCl was 85 μg per mouse per dose (i.e. molar equivalent to the dose of GemC18).

[2] = system: LLC cells; parameters: method as in earlier work; conditions: 3 × 10^3 cells, 48 h incubation; cited from earlier work
[3] = system: LLC tumors; experiment: Antitumor activity in mice with LLC lung tumors; assay type: in vivo, C57BL/6J mice; conditions: p.o. once in every two days, GemC18 250 μg/mouse, GemHCl 141.5 μg/mouse (molar equivalent)
Procedure: LLC tumors were established in female C57BL/6J mice (6-8 week) from the Beijing Vital River Laboratory Animal Technology Co., Ltd. (Beijing, China). Mice were s.c. injected with LLC cells (5 × 10^5) in their back on day 0. On day 11, mice were randomized into groups (n = 8) and were treated by oral gavage with GemC18-SLNs, GemC18-free SLNs, GemC18 alone in a Tween 20 solution, GemHCl (molar equivalent of GemC18), all in a mannitol solution (5%, w/v). Control mice were orally gavaged with a mannitol solution (5%). Mice were treated once in every two days for 3 weeks. The dose of GemC18 was 250 μg/mouse, 141.5 μg/mouse for GemHCl (i.e. molar equivalent to 250 μg of GemC18). GemC18 was dissolved into 1% (v/v) Tween 20 in a 5% (w/v) mannitol solution to a proper concentration. Mouse health was monitored daily, and weight recorded. Tumor size was measured every other day. […] Microscopic images taken at 200 x magnification were analyzed using an Image-Pro Plus software (Media Cybernetics, Inc., Shanghai, China) to determine the percent of cells that are Ki67 positive, the microvessel density (MVD) in tumor tissues, and the optical density of the anti-caspase 3 staining.

[4] = parameters: method as in PMID 19860433, PMID 17090088; conditions: oral, animal (rodent) models; cited from earlier work
[5] = parameters: method as in PMID 19860433; conditions: mouse model, molar equivalent dose, cited from earlier work
[6] = parameters: method as in PMID 19860433, PMID 26806350; conditions: cited from earlier work
[7] = system: leukemia; conditions: oral, rat leukemia model; cited from earlier work
[8] = parameters: method as in PMID 18473859, PMID 18474674; conditions: in water; cited from earlier work
[9] = system: TC-1 tumor cells; parameters: method as in PMID 23570983; conditions: 3 × 10^3 cells, 48 h of incubation; cited from earlier work
[10] = parameters: method as in PMID 18519780; conditions: human subjects, patients with advanced or metastatic cancer, estimated; cited from earlier work
[11] = system: HT-29 tumor cells; parameters: method as in PMID 17352232; conditions: peritumoral injection, GemC18 in a Tween 80 solution; cited from earlier work
[12] = system: TC-1 tumors; parameters: method as in PMID 21371545, PMID 22471294; conditions: GemC18 dissolved in a Tween 20 solution; cited from earlier work
[13] = system: B16F10 tumors; parameters: method as in PMID 21371545, PMID 22471294; conditions: GemC18 dissolved in a Tween 20 solution; cited from earlier work

SMILES | IC50 [2] [nM] | LLC tumor growth [3] | antitumor activity vs molar equivalent dose of gemcitabine [4] | solubility in water [6] [µg/mL] | IC50 [9] [nM] | other results
Nc1ccn([C@@H]2O[C@H](CO)[C@@H](O)C2(F)F)c(=O)n1 [gemcitabine HCl] | 23.4 ± 6.7 | also inhibited LLC tumor growth, but they were significantly less effective than oral GemC18-SLNs |  |  |  | TC-1 tumor growth [1]: significantly less effective than the GemC18-SLNs
CCCC(CCC)C(=O)Nc1ccn([C@@H]2O[C@H](CO)[C@@H](O)C2(F)F)c(=O)n1 [LY2334737] |  |  | stronger antitumor activity | > 2000 |  | systemic exposure (AUC) vs oral gemcitabine ([5]; listed as LY2334734): higher systemic exposure of gemcitabine than oral free gemcitabine; systemic exposure (AUC) vs oral gemcitabine [5]: significantly higher
CC(C)=CCC/C(C)=C/CC/C(C)=C/CC/C=C(\C)CC/C=C(\C)CCC(=O)Nc1ccn([C@@H]2O[C@H](CO)[C@@H](O)C2(F)F)c(=O)n1 [SQdFdC] |  |  | stronger antitumor activity |  |  | antitumor activity [7]: potent antitumor activity; size of self-assembled nanoparticles [8]: 100-300 nm
Nc1ccn([C@@H]2O[C@H](CO)[C@@H](O)C2(F)F)c(=O)n1 [gemcitabine, 2′,2′-difluorodeoxycytidine] |  |  |  |  | 10.6 ± 1.1 | oral bioavailability [10]: 10% and ~ 10%
CCCCCCCCCCCCCCCCCC(=O)Nc1ccn([C@@H]2OC(CO)C(O)C2(F)F)c(=O)n1 (stereo partly shown) [GemC18, 4-(N)-stearoyl gemcitabine] | 130 ± 31.1 | also inhibited LLC tumor growth, but they were significantly less effective than oral GemC18-SLNs |  | 1.38 ± 1.60 (≈ 2.61 µM) | 18.5 ± 1.7 | tumor growth [11]: did not significantly affect the tumor growth; antitumor activity [12]: did not show any significant antitumor activity; antitumor activity [13]: did not show any significant antitumor activity
